In the case of `ON=C1CCC2(CC1)Cc1ccccc1C2`, the melting point (usually the temperature, or range, at which the solid turns liquid) is 120 to 122 °C.

In turn, `CCOC(=O)C(C)Oc1ccc(N(C)c2nc3cc(Cl)ccc3o2)cc1` (stereo unspecified) gave a melting point of 68 to 68.6 °C.

`COc1ccc(C(=O)O)c(COc2ccc(CC(=O)O)cc2)c1` gave a melting point of 198 to 200 °C.

In turn, `Cc1cccc2[nH]c(C(=O)NCCc3ccc(CCCC(=O)O)cc3)cc12` had a melting point of 132 to 134 °C.

On to `CC(=O)c1cccc2c1OC1(CC1)C2=O`, for which the melting point is 114 to 115 °C.

Regarding `O=C1N(N(c2ccccc2)c2ccccc2)c2ccccc2C1(Cc1ccncc1)Cc1ccncc1`, the melting point fell in the range of 184 to 186 °C.

For the compound `CCCc1cc(CCCOc2c(C)cc(-c3noc(C)n3)cc2C)on1`, the melting point was in the range of 69 to 70 °C.

Compound `OC(COc1ccc(F)cc1)CN1CCC(=C2c3ccc(F)cc3CCn3ncnc32)CC1` (stereo unspecified) returned a melting point of 134 °C.

Take `Cc1cc(C)c(N2CCCc3c2[nH]n(C)c3=O)c(Cl)c1`: the melting point fell in the range of 95.9 to 99.9 °C.

On to `CCc1cn(C(CC)CC)c(=O)c(N2CCc3cc(Cl)cc(Cl)c32)n1`, for which the melting point was in the range of 136 to 137 °C.

In turn, `O=C(C=Cc1ccc(-c2ccc3ncnc(Nc4ccc(OCc5cccc(F)c5)c(Cl)c4)c3c2)o1)NOC1CCCCO1` (stereo unspecified) registered a melting point of 233 °C.

For `CC(CN1C(=O)C2(COc3cc4c(cc32)CCO4)c2ccccc21)OCc1ccc(F)cc1` (stereo unspecified), the melting point was in the range of 55 to 60 °C.

`CCCCc1ccc2oc(=O)c(=O)oc2c1` registered a melting point of 88 to 93 °C.

`O=C(NCCO)/C(=C/c1ccc(OC(F)(F)F)cc1)NC(=O)c1ccc(OCCC(F)(F)F)cc1` yielded a melting point of 159 to 160 °C.

Regarding `O=C1c2ccc([N+](=O)[O-])cc2C(=O)N1c1ccc(C2(c3ccc(N4C(=O)c5ccc([N+](=O)[O-])cc5C4=O)cc3)c3ccccc3-c3ccccc32)cc1`, the melting point fell in the range of 360 to 363 °C.

`CCCC1(C)C(=O)NC(=O)N1c1ccc(C)cc1` (stereo unspecified) came in with a melting point of 158 °C.

`CC1=C(C(=O)OCC=Cc2ccccc2)C(c2ccccc2C(F)(F)F)c2c(ccnc2OC(C)C)N1` (stereo unspecified) registered a melting point of 164 to 166 °C.

For the compound `O=C(Cc1ccccc1C(=O)O)Nc1cccc(/C=C/c2nc(C3CCCCCC3)cs2)c1`, the melting point lay in the range of 189 to 190 °C.

The compound `Cc1cc2cc(/C(=C\CO)c3ccc(I)cc3)ccc2o1` came in with a melting point of 103 to 113 °C.

`Cc1ccc(C(=O)NC(NC(=S)Nc2cccnc2)C(F)(F)F)cc1` (stereo unspecified) returned a melting point of 185 to 186 °C.

Regarding `O=C(Cc1ccc(Cl)cc1)N1CCCCC1`, the melting point is 85 to 85.5 °C.

Take `CC(C)[C@H]1COC(=O)N1C(=O)[C@@H](CC(=O)OCc1ccccc1)Cc1ccccc1`: the melting point lay within 118 to 120 °C.

In the case of `O=C(O)Cc1cccc(C(=O)c2cc3cc(C(=O)O)sc3s2)c1`, the melting point was 283 °C.

Compound `COc1ccc(CCNC(=O)C(N)=O)cc1OC` had a melting point of 171 to 172 °C.

`O=c1[nH]ncn1-c1ccc(I)cc1` displayed a melting point of 258 °C.

For `COc1ccc(C(=O)c2[nH]c3ccc(Cl)cc3c2CC(=O)O)cc1`, the melting point was in the range of 232 to 235 °C.

On to `COc1ccc(Cn2cnc3c(-c4ccco4)nc(-c4ccccc4)nc32)cc1`, for which the melting point was in the range of 140 to 142 °C.

`Cc1cc(Br)ccc1-n1c(C(F)(F)F)nn(C)c1=O` yielded a melting point of 80 to 83 °C.

Compound `CNCC1=C(n2ccccc2=O)c2cc([N+](=O)[O-])ccc2OC1(C)C` had a melting point of 128 °C.

On to `C/C=C/C(=O)NC(=O)OC`, for which the melting point fell in the range of 149 to 150 °C.

As to `CN(C)c1nn(-c2c(Cl)cc(C(F)(F)F)cc2Cl)c(=O)n1C`, the melting point lay in the range of 105 to 107 °C.

Regarding `Nc1ccc(C#CC2CC2)c(F)c1`, the melting point lay in the range of 82 to 86 °C.

`CC(=O)N(C(C)=O)C1=C(N2CCN(Cc3cc(=O)[nH]c(=O)[nH]3)CC2)C(=O)c2ccccc2C1=O` had a melting point of 152 to 154 °C.

With `O=C1C=CC(=C(c2ccccc2)c2ccccc2)O1`, the melting point lay in the range of 110 to 112 °C.

Compound `Cc1cc(-n2c(=O)cc(C(F)(F)F)[nH]c2=O)c(F)cc1Br` had a melting point of 186 °C.

For `CC(=O)NC[C@H]1CN(c2ccc(C3=CN(C(=O)COC(C)=O)CCC3)c(F)c2)C(=O)O1`, the melting point fell in the range of 146 to 148 °C.

In turn, `CNC(=O)CC1CN=C(c2cc3cc(Oc4ccc(S(C)(=O)=O)nc4)cc(OC(C)COC)c3[nH]2)S1` (stereo unspecified) gave a melting point of 107 to 109 °C.

In turn, `Cc1ccc(O)c(C(=O)C2CC2)c1` showed a melting point of 66 to 68 °C.

`CCCCC(CC)COc1ccc(-c2c3ccc(O)cc3c(-c3ccc(OCC(CC)CCCC)cc3)c3ccc(O)cc23)cc1` (stereo unspecified) displayed a melting point of 195 to 197 °C.

On to `N#CCc1ccc(OCc2ccccc2)c([N+](=O)[O-])c1`, for which the melting point was 91 to 97 °C.

For the compound `Cc1nn(-c2ccccc2)nc1C(=O)N1CCC2(CC1)CSC1=C(O2)c2ccccc2C(=O)C1=O`, the melting point fell in the range of 275 to 280 °C.

For `O=C1C(c2ccccc2)=C(c2ccccc2)C(=O)N1CCc1ccccc1F`, the melting point lay within 111 to 112 °C.

`Cn1c(C(F)(F)F)ccc(-c2cc3[nH]c(=O)oc3cc2Cl)c1=O`: the melting point lay within 263 to 265 °C.

`COC(=O)C(Oc1ccc(Cl)c2c1CCCC2)c1ccc(Oc2ccc(Cl)cc2)cc1` (stereo unspecified) yielded a melting point of 87.5 to 90 °C.

As to `CCOc1nc(C)c(N2CCCn3c2nc2c(Cl)ccc(C(OC(F)F)C(F)(F)F)c23)c(C)n1` (stereo unspecified), the melting point lay within 218 to 220 °C.

As for `Cc1ncc(C#N)c(Nc2cccc3[nH]ccc23)c1-c1cc2ccccc2o1`, the melting point is 192 to 193 °C.

Compound `COc1ccc(C(=O)c2ccc(OCCc3nc(-c4ccccc4)oc3C)nc2)c(O)c1` came in with a melting point of 114 to 115 °C.

Turning to `COc1cccc(-c2[nH]cc(C3=C[C@@H]4C[C@@H](c5ccccc5)CN4CC3)c2-c2ccncc2)c1`, the melting point was 141 to 144 °C.

`O=C1COC(CNC(=O)c2cccnc2Oc2ccc(F)cc2)CN1` (stereo unspecified) displayed a melting point of 157 to 159 °C.

Turning to `CCN(CC)CCCNC(=O)C1=C(O)c2ccccc2S(=O)(=O)N1C`, the melting point is 107 to 110 °C.

`Oc1cccc(CCCCn2ccnc2)c1` showed a melting point of 133 to 134 °C.

Consider `CCOC(=O)C1=C(C(F)(F)F)Nc2n[nH]cc2C1c1ccsc1` (stereo unspecified), for which the melting point lay in the range of 140 to 145 °C.

As to `COc1ccc(CC2CCN(C(=O)C(=O)Nc3ccc4[nH]c(=O)oc4c3)CC2)cc1`, the melting point fell in the range of 193 to 197 °C.

As for `CNC(=O)c1cc2c(Oc3ccc(OC(F)(F)F)cc3)cncc2s1`, the melting point lay in the range of 132 to 133 °C.

`COC(=O)C1=C(C)NC(C)=C(C(=O)OCCN2CCN(S(=O)(=O)c3ccc(Cl)cc3)CC2)C1c1cccc([N+](=O)[O-])c1` (stereo unspecified) gave a melting point of 97 to 105 °C.

For the compound `Cc1noc(-c2ncn3c2[C@@H]2CCN2C(=O)c2c-3cccc2C(F)(F)F)n1`, the melting point is 255 to 256 °C.

`O=C(c1ccc(C2=CCCc3ccccc32)cc1Cl)N1Cc2cccn2Cc2ccccc21`: the melting point fell in the range of 174 to 176 °C.

Compound `CC(C)CCC(O)C(CC1CCCCC1)NC(=O)C(Cc1c[nH]cn1)N(C)C(=O)C(Cc1ccccc1)OC(=O)N(C)CCN(C)C(=O)N1CCOCC1` (stereo unspecified) came in with a melting point of 69 to 74 °C.

Compound `CCOC(=O)C1=C(C)N=C(N)C(CC)(C(=O)OCC)C1c1cccc([N+](=O)[O-])c1` (stereo unspecified) displayed a melting point of 122 to 123 °C.

`CNc1nc2c(Cc3cccnc3)c(C)c(O)c(C)c2s1` returned a melting point of 236 to 238 °C.

`O=C(CS(=O)(=O)Cc1ccccc1)CS(=O)(=O)C(c1ccc(Cl)cc1)c1ccc(Cl)cc1` yielded a melting point of 72 to 90 °C.

Compound `Cc1cccc(C)c1OC1CN(C(c2ccccc2)c2ccccc2)C1` yielded a melting point of 99 to 100 °C.

`COC(=O)C=Cc1cnc(N2CCC[C@H]2CO)nc1NCc1ccc(OC)c(Cl)c1` came in with a melting point of 163 to 164 °C.

`O=[N+]([O-])c1ccc2[nH]cc(CCCBr)c2c1`: the melting point lay within 92 to 95 °C.

`Cc1sc(CO)c(C)c1C` showed a melting point of 45 to 48 °C.

With `CN(CCOc1ccc(CCOCCc2ncno2)cc1)c1nc2ccccc2o1`, the melting point lay in the range of 89 to 90 °C.

With `N#Cc1[nH]c2ccc(Br)cc2c1-c1ccccc1`, the melting point is 227 to 230 °C.

`Cc1cc(OS(=O)(=O)C(F)(F)F)ccc1S(C)(=O)=O` came in with a melting point of 51 °C.

As for `CN1CCCC1CCOc1ccccc1CCc1cccc(C#N)c1` (stereo unspecified), the melting point was in the range of 101 to 102 °C.

The compound `C=C(C)C[C@H]1CC(C)=CCN1c1ccccc1` displayed a melting point of 55 to 57 °C.

Compound `COc1ccc(C(=O)Nc2ccc(C(=O)c3ccccc3)cc2)cc1` gave a melting point of 171 to 174 °C.

With `O=C(O)CCc1cc2cc(F)c(Cl)cc2n1S(=O)(=O)c1ccccc1`, the melting point lay in the range of 199 to 204 °C.

`CN1Cc2c(-c3noc(CN4CCCCC4)n3)ncn2-c2ccc(F)cc2C1=O` came in with a melting point of 182 to 184 °C.

With `O=CNc1ccsc1I`, the melting point is 100 to 107 °C.

For `Nc1ccc(CCNC(=O)c2cc(O)c(O)c(O)c2)cc1`, the melting point fell in the range of 167 to 169 °C.

The compound `CCCN(CCCc1csc2ccc(F)cc12)C1COc2cccc(OC)c2C1` (stereo unspecified) returned a melting point of 78 °C.

For the compound `O=C(Nc1cc(C(F)(F)F)ccc1N1CCCCCC1)c1ccncc1`, the melting point fell in the range of 138 to 139 °C.

`O=C(c1ccc2n1Cc1ccccc1N(C(=O)c1ccc(-c3cccc4ccccc34)cc1)C2)N(CCO)CCO` returned a melting point of 221 to 224 °C.

In the case of `CC(=O)OCCOc1ccc(OCCOC(C)=O)c(N)c1`, the melting point fell in the range of 67.5 to 69.5 °C.

`CCOc1cc(-c2cc(C(F)(F)F)nc(-c3ccnc(-c4cccc(S(N)(=O)=O)c4)c3)n2)ccc1C(F)(F)F` came in with a melting point of 224 °C.

Regarding `CC1COP(=O)(Cc2ccc([N+](=O)[O-])cc2)OC1` (stereo unspecified), the melting point was 170 to 171 °C.

`C=C(c1ccc(C#N)cc1)c1cncs1` displayed a melting point of 71 to 73 °C.

`CCCCc1oc2ccccc2c1C(=O)Nc1ccc(-c2ccc(O)cc2)cc1` showed a melting point of 181 to 183 °C.

In turn, `c1ccc2c(c1)Cc1cc(C3(Cn4ccnc4)OCCO3)ccc1-2` gave a melting point of 163 to 166 °C.

For the compound `Nc1nnc(-c2ccc3occ(-c4cc(F)ccc4F)c3c2)o1`, the melting point fell in the range of 245 to 246 °C.

In turn, `COc1ccc(-c2ccc(C(=O)Nc3ccc4cc(CN5CCCC5)cnc4c3F)cc2)cc1` showed a melting point of 217 to 220 °C.

The record behind these values is a melting point compilation (Tetko et al.; mined from patent text by program, amines drawn as free bases though some values may be those of a salt).
